Measurements published in BindingDB's records for doi:10.1021/jm00100a021 (University of Illinois, 1992).

Tests used:
Serine protease 1 = molecular target: T1, Serine protease 1 (Bos taurus, UniProt P00760); experiment: ChEBML_212371
T1 sequence (P00760 whole entry): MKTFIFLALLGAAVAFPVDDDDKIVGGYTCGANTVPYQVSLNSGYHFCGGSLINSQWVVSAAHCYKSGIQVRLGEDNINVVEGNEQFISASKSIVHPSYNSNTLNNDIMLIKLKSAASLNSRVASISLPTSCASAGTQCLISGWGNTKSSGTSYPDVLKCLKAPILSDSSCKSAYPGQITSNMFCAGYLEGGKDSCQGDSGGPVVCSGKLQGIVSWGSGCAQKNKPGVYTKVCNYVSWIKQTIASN
Text: […] rate constant against trypsin

[1] = molecular target: Urokinase-type plasminogen activator (Homo sapiens, UniProt P00749); experiment: ChEBML_213149
Text: […] rate constant against Urokinase-type plasminogen activator

koff (Serine protease 1) [s⁻¹]	koff [1] [s⁻¹]	SMILES
0.000333	–	N=C(N)Nc1ccc(C2CC(=O)O/C(=C/I)C2)cc1 (stereo not drawn)
3.3e-05	0.00015	C=C1CC(c2ccc(N=C(N)N)cc2)CC(=O)O1 (stereo not drawn)
